Test results reported in patent publication US20170114049A1, “2,5-DISUBSTITUTED CYCLOPENTANE CARBOXYLIC ACIDS FOR THE TREATMENT OF RESPIRATORY TRACT DISEASES” (BAYER PHARMA AKTIENGESELLSCHAFT, priority 2014, published 2017).

How the values were obtained:
Type in all cases: biochemical
MMP-7 = target: T1, MMP-7 (Homo sapiens, UniProt P09237); test: In vitro MMP-7 inhibition test
T1 construct: purchased R&D Systems 907-MP
T1 sequence (P09237 95-267): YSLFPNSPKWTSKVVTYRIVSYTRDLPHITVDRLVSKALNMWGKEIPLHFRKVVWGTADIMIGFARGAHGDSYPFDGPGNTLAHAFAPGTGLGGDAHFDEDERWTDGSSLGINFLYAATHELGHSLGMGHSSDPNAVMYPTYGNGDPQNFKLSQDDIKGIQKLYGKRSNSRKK
Source text: (§1) The MMP-mediated amidolytic cleavage of a suitable peptide substrate leads to an increase in fluorescent light here too. The signal intensity of the fluorescent light is directly proportional to the enzyme activity. The active concentration of a test compound at which half the enzyme is inhibited (50% signal intensity of the fluorescent light) is reported as the […].
(§2) Recombinant MMP-7 (from R&D Systems, 907-MP) is chemically activated in accordance with the manufacturer's instructions using APMA. 1 μl of the test compound to be analysed (as a solution in DMSO, suitable concentrations, for example, 1 nM to 30 μM) is pipetted into 24 μl of activated enzyme (final concentration, for example, 0.5 nM) in reaction buffer (50 mM Tris/HCl pH 7.5, 10 mM CaCl2, 150 mM NaCl, 0.05% Brij®-35) in a white 384-hole microtiter plate (MTP). The enzymatic reaction is started by adding the intramolecularly quenched Mca-Pro-Leu-Gly-Leu-Dpa(Dnp)-Ala-Arg-NH2 substrate (final concentration, for example, 10 μM; R&D Systems, ES-001), so as to result in a total test volume of 50 μl. The course of the MMP-7 reaction is measured by measuring the fluorescence intensity (excitation 320 nm, emission 410 nm) over a suitable period of time (for example over 120 min at a temperature of 32° C.).

MMP-8 = target: T2, MMP-8 (Homo sapiens, UniProt P22894); test: In vitro MMP-8 inhibition test
T2 construct: purchased R&D Systems 908-MP
Source text: as §1
as §2, with “MMP-8” for “MMP-7”, “908-MP)” for “907-MP)”

MMP-13 = target: T3, MMP-13 (Homo sapiens, UniProt P45452); test: In vitro MMP-13 inhibition test
T3 construct: purchased R&D Systems 511-MP
Source text: as §1
as §2, with “MMP-13” for “MMP-7”, “511-MP)” for “907-MP)”, “0.1” for “0.5”

MMP-14 = target: T4, MMP-14 (Homo sapiens, UniProt P50281); test: In vitro MMP-14 inhibition test
T4 construct: purchased R&D Systems 918-MP
Source text: as §1
Recombinant MMP-14 (from R&D Systems, 918-MP) is enzymatically activated in accordance with the manufacturer's instructions using recombinant furin (from R&D Systems, 1503-SE). 1 μl of the test compound to be analysed (as a solution in DMSO, suitable concentrations e.g. 1 nM to 30 μM) is pipetted into 24 μl of activated enzyme (final concentration e.g. 0.5 nM) in reaction buffer (50 mM Tris/HCl pH 7.5, 10 mM CaCl2, 150 mM NaCl, 0.05% Brij®-35) in a white 384-hole microtiter plate (MTP). The enzymatic reaction is started by adding the intramolecularly quenched Mca-Lys-Pro-Leu-Gly-Leu-Dpa(Dnp)-Ala-Arg-NH2 substrate (final concentration, for example, 5 μM; R&D Systems, ES-010), so as to result in a total test volume of 50 μl. The course of the MMP-14 reaction is measured by measuring the fluorescence intensity (excitation 320 nm, emission 410 nm) over a suitable period of time (for example over 120 min at a temperature of 32° C.).

[1] = target: T5, human macrophage elastase (HME/hMMP-12) (Homo sapiens, UniProt P39900); test: In vitro HME inhibition test in the presence of serum albumin (BSA) in the reaction buffer; details: presence of serum albumin (BSA) 2% (w/w)
T5 construct: 0.5 nM HME; purchased R&D Systems 917-MP
Source text: This test corresponds to the standard HME inhibition test described above, except using a modified reaction buffer. This reaction buffer additionally contains bovine serum albumin (BSA, fatty acid-free, A6003, from Sigma-Aldrich) of final concentration 2% (w/w), which corresponds to about half the physiological serum albumin content.

T5 sequence (P39900 106-470): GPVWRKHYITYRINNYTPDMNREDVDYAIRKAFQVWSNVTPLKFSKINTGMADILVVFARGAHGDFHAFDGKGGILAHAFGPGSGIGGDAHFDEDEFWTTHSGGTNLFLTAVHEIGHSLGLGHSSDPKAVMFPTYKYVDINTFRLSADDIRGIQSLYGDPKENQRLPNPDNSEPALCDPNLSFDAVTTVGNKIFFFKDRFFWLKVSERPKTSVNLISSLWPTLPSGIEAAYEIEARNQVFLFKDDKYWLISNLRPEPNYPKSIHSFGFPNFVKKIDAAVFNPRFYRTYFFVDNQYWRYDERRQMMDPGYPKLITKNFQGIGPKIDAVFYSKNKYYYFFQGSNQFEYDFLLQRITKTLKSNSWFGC
T2 sequence (P22894 101-467): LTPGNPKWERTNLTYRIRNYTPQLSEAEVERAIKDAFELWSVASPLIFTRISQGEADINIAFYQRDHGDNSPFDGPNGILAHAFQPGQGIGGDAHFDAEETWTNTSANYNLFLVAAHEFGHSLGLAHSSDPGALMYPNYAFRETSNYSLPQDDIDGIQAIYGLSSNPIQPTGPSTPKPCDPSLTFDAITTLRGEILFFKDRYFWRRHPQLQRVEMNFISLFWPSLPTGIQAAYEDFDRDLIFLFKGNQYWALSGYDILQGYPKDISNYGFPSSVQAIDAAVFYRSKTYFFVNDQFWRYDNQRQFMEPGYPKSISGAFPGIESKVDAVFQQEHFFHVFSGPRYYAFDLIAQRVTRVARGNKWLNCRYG

Compound	IC50 (MMP-7)	IC50 (MMP-8)	IC50 (MMP-13)	IC50 (MMP-14)	IC50 [1]
O=C(O)[C@@H]1[C@@H](Cn2nnc3ccccc3c2=O)CC[C@H]1C(=O)c1ccc(OCCC2CCOCC2)cc1 (single isomer, unassigned) [Example 5, (+)-(1RS,2SR,5RS)-2-[(4-Oxo-1,2,3-benzotriazin-3(4H)-yl)methyl]-5-{4-[2-(tetrahydro-2H-pyran-4-yl)ethoxy]benzoyl}cyclopentanecarboxylic acid]	0.6 µM	0.015 µM	0.067 µM	0.25 µM	0.00406 µM
O=C(O)[C@H]1[C@H](Cn2nnc3ccccc3c2=O)CC[C@@H]1C(=O)c1ccc(OCC2CCOCC2)cc1 (stereo in doubt) [Example 1, (+/−)-(1RS,2SR,5RS)-2-[(4-Oxo-1,2,3-benzotriazin-3(4H)-yl)methyl]-5-[4-(tetrahydro-2H-pyran-4-ylmethoxy)benzoyl]cyclopentanecarboxylic acid]	1.2 µM	0.011 µM	0.11 µM	0.16 µM	0.00645 µM
O=C(O)[C@@H]1[C@@H](Cn2nnc3ccccc3c2=O)CC[C@H]1C(=O)c1ccc(OCC2CCOCC2)cc1 (stereo in doubt) [Example 2, (+)-(1RS,2SR,5RS)-2-[(4-Oxo-1,2,3-benzotriazin-3(4H)-yl)methyl]-5-[4-(tetrahydro-2H-pyran-4-ylmethoxy)benzoyl]cyclopentanecarboxylic acid]	0.64 µM	0.0047 µM	0.049 µM	0.099 µM	0.00671 µM
O=C(O)[C@H]1[C@H](Cn2nnc3ccccc3c2=O)CC[C@@H]1C(=O)c1ccc(OCCC2CCOCC2)cc1 (stereo in doubt) [Example 4, (+/−)-(1RS,2SR,5RS)-2-[(4-Oxo-1,2,3-benzotriazin-3(4H)-yl)methyl]-5-{4-[2-(tetrahydro-2H-pyran-4-yl)ethoxy]benzoyl}cyclopentanecarboxylic acid]	3.2 µM	0.098 µM	0.46 µM	2.7 µM	0.0373 µM
(+)-(1RS,2SR,5RS)-2-{[4-Oxo-6-(trifluoromethyl)-1,2,3-benzotriazin-3(4H)-yl]methyl}-5-[4-(tetra-hydro-2H-pyran-4-ylmethoxy)benzoyl]cyclopentanecarboxylic acid [Example 8]	0.045 µM	0.0006 µM	0.051 µM	0.1 µM	0.00245 µM

Continued, values first:

IC50 (MMP-7)	IC50 (MMP-8)	IC50 (MMP-13)	IC50 (MMP-14)	IC50 [1]	Compound
0.13 µM	0.001 µM	0.14 µM	0.17 µM	–	O=C(O)[C@H]1[C@H](Cn2nnc3ccc(C(F)(F)F)cc3c2=O)CC[C@@H]1C(=O)c1ccc(OCC2CCOCC2)cc1 (racemic) [Example 7, (+/−)-(1RS,2SR,5RS)-2-{[4-Oxo-6-(trifluoromethyl)-1,2,3-benzotriazin-3(4H)-yl]methyl}-5-[4-(tetrahydro-2H-pyran-4-ylmethoxy)benzoyl]cyclopentanecarboxylic acid]
1.1 µM	0.028 µM	0.59 µM	2.7 µM	0.032 µM	Cc1ccc2nnn(C[C@@H]3CC[C@H](C(=O)c4ccc(OCCC5CCOCC5)cc4)[C@H]3C(=O)O)c(=O)c2c1 (racemic) [Example 19, (+/−)-(1RS,2SR,5RS)-2-[(6-Methyl-4-oxo-1,2,3-benzotriazin-3(4H)-yl)methyl]-5-{4-[2-(letrahydro-2H-pyran-4-yl)ethoxy]benzoyl}cyclopentanecarboxylic acid]
0.19 µM	0.0056 µM	0.47 µM	1.2 µM	0.0392 µM	O=C(O)[C@@H]1[C@@H](Cn2nnc3ccc(C(F)(F)F)cc3c2=O)CC[C@H]1C(=O)c1ccc(OCCC2CCOCC2)cc1 (single isomer, unassigned) [Example 11, (+)-(1RS,2SR,5RS)-2-{[4-Oxo-6-(trifluoromethyl)-1,2,3-benzotriazin-3(4H)-yl]methyl}-5-{4-[2-(tetrahydro-2H-pyran-4-yl)ethoxy]benzoyl}cyclopentanecarboxylic acid]
0.08 µM	0.0009 µM	0.22 µM	0.15 µM	0.016 µM	O=C(O)[C@@H]1[C@@H](Cn2nnc3ccc(C(F)(F)F)cc3c2=O)CC[C@H]1C(=O)c1ccc(SCC2CCOCC2)cc1 (single isomer, unassigned) [Example 15, (+)-(1RS,2SR,5RS)-2-{[4-Oxo-6-(trifluoromethyl)-1,2,3-benzotriazin-3(4H)-yl]methyl}-5-{4-[(tetrahydro-2H-pyran-4-ylmethyl)sulphanyl]benzoyl}cyclopentanecarboxylic acid]
0.29 µM	0.01 µM	0.17 µM	1 µM	0.0122 µM	Cc1ccc2nnn(C[C@H]3CC[C@@H](C(=O)c4ccc(OCCC5CCOCC5)cc4)[C@@H]3C(=O)O)c(=O)c2c1 (single isomer, unassigned) [Example 20, (+)-(1RS,2SR,5RS)-2-[(6-Methyl-4-oxo-1,2,3-benzotriazin-3(4H)-yl)methyl]-5-{4-[2-(tetrahydro-2H-pyran-4-yl)ethoxy]benzoyl}cyclopentanecarboxylic acid]
0.096 µM	0.0039 µM	0.23 µM	0.6 µM	–	O=C(O)[C@H]1[C@H](Cn2nnc3ccc(C(F)(F)F)cc3c2=O)CC[C@@H]1C(=O)c1ccc(OCCC2CCOCC2)cc1 (stereo in doubt) [Example 10, (+/−)-(1RS ,2S R,5RS)-2-{[4-Oxo-6-(trifluoromethyl)-1,2,3-benzotriazin-3(4H)-yl]methyl}-5-{4-[2-(tetrahydro-2H-pyran-4-yl)ethoxy]benzoyl}cyclopentanecarboxylic acid]
